Test results: patent publication US20130005034A1, “ARTIFICIAL PEPTIDE AND USE THEREOF” (TOAGOSEI CO., LTD, priority 2008, published 2013)
Where no end group is shown, it is not given here.

Tests used:
[1] = tested on: neural stem cells collected from a rat; conditions: peptide 1 μM in culture broth, 24 hours
Procedure: That is, these sample peptides were added to a culture broth of neural stem cells collected from a rat, and incubated. The amount of peptide added was adjusted so that the peptide concentration within the culture broth became 1 μM for each peptide.
In addition, the same sample was subjected to evaluation with a neuronal differentiation induction marker. That is, using tubulin as a marker for identifying neurons, the presence or absence of tubulin (i.e., of neurons) in the culture broth was determined by a fluorescent antibody method that uses a fluorescent dye-labeled anti-tubulin antibody for identifying this tubulin. In addition, using glial fibrillary acidic protein (GFAP), which is a cytoskeletal protein in glial cells, as a marker for identifying glial cells, the presence or absence of GFAP (i.e., of glial cells) in the culture broth was determined by a fluorescent antibody method that uses a fluorescent dye-labeled anti-GFAP antibody for identifying this GFAP.

[2] = tested on: human iPS cells (cell line: 201B2); experiment: iPS cell membrane permeability of FITC-labeled peptides (FITC fluorescence intensity, confocal laser scanning microscopy); type: cell-based; conditions: 1 hour; for Relative Intensity (FITC fluorescence): relative to Comparative Sample 2 at 0.5 μM = 1, average of five measurements; for introduction into artificial pluripotent stem cells: 0.5 μM or 1 μM
Procedure: Next, the abilities of the three resulting synthesized peptides to pass through the cell membranes of artificial pluripotent stem cells (iPS cells) were investigated. Fluorescein isothiocyanate (FITC) was added beforehand to the N-terminus of each of the synthesized peptides.
The human iPS cells (cell line: 201B2) used in this example were procured from Kyoto University. The mouse embryo fibroblasts (cell line: SNL76/7) used as feeder cells were procured from ECACC, which supply the cells on commission from Dr. Allan Bradley.
The iPS cells thus acquired were cultured, using a human embryonic stem cell culture medium (DMEM/F12, containing 20% knockout serum replacement (KSR), 2 mM L-glutamine, 0.1 mM non-essential amino acids, 0.1 mM 2-mercaptoethanol, 50 units/50 μg/ml penicillin/streptomycin, and 4 ng/ml bFGF), in a 37° C., 5% CO2 environment on a gelatin-coated dish seeded with the above SNL feeder cells that had been mitomycin C-treated.
The cultured iPS cells were then treated with a CTK solution (containing 1 mg/ml collagenase IV, […], […] and 20% KSR), and recovered. Next, a suspension of microaggregates was prepared by pipetting, dispensed into each well of a commercial gelatin-coated 4-well chamber (culture) slide that had been seeded with mitomycin C-treated SNL feeder cells, and cultured in a 37° C., 5% CO2 environment for about 6 days.
The culture solution in each well was then replaced with a cell culture obtained by adding a peptide stock solution (1 mM) of any one of the above Sample 6 and Comparative Samples 1 and 2 that had been pre-labeled with FITC to a specified concentration (i.e., to a final concentration within the medium of 0.5 μM or 1 μM), and the cell culture was cultured for 1 hour in a 37° C., 5% CO2 environment.
Next, after washing with PBS, the cells within the wells were fixed with cold methanol, and were encapsulated using a DAPI-containing antifade reagent (Invitrogen).
Localization of the FITC-labeled peptides was confirmed using a confocal laser scanning microscope. Specifically, the FITC fluorescence intensity in each test group (the respective encapsulated samples to be measured) was measured by confocal laser scanning microscopic analysis. The measurement conditions were as follows.
Argon laser excitation wavelength: 488 nm
Objective lens: Plan-Apochromat 20×/0.75
The relative fluorescence intensity of each test group was calculated relative to a value of 1 for the fluorescence intensity of the test group in which Comparative Sample 2 was added to a final concentration within the culture medium of 0.5 μM. Measurement was independently carried out five times, and the average value of the five measurements was treated as the fluorescence intensity. In addition, micrographs obtained using a confocal laser scanning microscope to observe iPS cell cultures to which Sample 6 or Comparative Sample 2 was added to a final concentration of 1 μM (the above encapsulated test groups) are shown respectively in FIG. 7 (Sample 6 addition group) and FIG. 8 (Comparative Sample 2 addition group).

Substance: SLQYLCRFVIRQYTRKKRTLRKNDRKKR-NH2 [Sample 2, SLQYLCRFVIRQYTR-KKRTLRKNDRKKR]
- differentiation to glial cells (GFAP marker) [1]: not observed

Substance: TLKERCLQVVRSLVKKKRTLRKNDRKKR [Sample 6]
- Relative Intensity (FITC fluorescence) ([2]; 0.5 μM final concentration): 13.5
- Relative Intensity (FITC fluorescence) ([2]; 1.0 μM final concentration): 23.2

Substance: TLKERCLQVVRSLVKSRRHHCRSKAKRSRHH [Comparative Sample 2, VHL peptide linked to the N-terminal end of hPER1-NLS]
- Relative Intensity (FITC fluorescence) ([2]; 0.5 μM final concentration): 1
- introduction into artificial pluripotent stem cells [2]: substantially not introduced
- Relative Intensity (FITC fluorescence) ([2]; 1.0 μM final concentration): 4.8

Substance: RRRRRRRRRGTLKERCLQVVRSLVK [Comparative Sample 3, VHL peptide linked through a single glycine residue to the C-terminal end of polyarginine R9]
- Relative Intensity (FITC fluorescence) ([2]; 0.5 μM final concentration): <1
- introduction into artificial pluripotent stem cells [2]: substantially not introduced
- Relative Intensity (FITC fluorescence) ([2]; 1.0 μM final concentration): 2.8

Substance: KKRTLRKNDRKKR [Comparative Sample 1]
- differentiation to glial cells (GFAP marker) [1]: not observed
- neuronal differentiation (differentiation from neural stem cells to neurons, tubulin marker) [1]: not observed
